These results are taken from patent US9518004B2, “Reduced coenzyme Q10 derivative and method for production thereof” (KANEKA CORPORATION, priority 2012, dated 2016).

This data set in a line: Oral absorbability in rats: overall coenzyme Q10 concentration in plasma by HPLC after oral administration (AUC). Details: species or system Spregue-Dawley rats. Conditions: rat, in vivo, 57.8 umol/kg. The method, then:
(§1) To seven-weeks old male Spregue-Dawley rats (obtained from Japan SLC, Inc.) were orally administered the derivatives of reduced coenzyme Q10 obtained in Examples 3, 4 and 5 and the starting reduced coenzyme Q10 as control each in 57.8 μmol/kg (50 mg/kg in terms of reduced coenzyme Q10). Blood was extracted from each rat after 1, 2, 4, 8 and 24 hours after administration of each sample. Each extracted blood was centrifuged, so that plasma was obtained. Then, oxidation treatment of reduced coenzyme Q10 in the plasma and extraction treatment of oxidized coenzyme Q10 were performed, and then the overall coenzyme Q10 concentration in the plasma was measured as oxidized coenzyme Q10 by using HPLC.
as §1, with “derivative” for “derivatives”, “Referential Example 1” for “Examples 3, 4 and 5”

In the case of `COc1c(OC(C)=O)c(C)c(CC=C(C)CCC=C(C)CCC=C(C)CCC=C(C)CCC=C(C)CCC=C(C)CCC=C(C)CCC=C(C)CCC=C(C)CCC=C(C)C)c(OC(C)=O)c1OC` [Bisacetyl derivative, Bisacetyl Derivative], the “AUC (area under the blood concentration-time curve) as compared with reduced coenzyme Q10, in words” value was “lower”.
